The target in this experiment is T1, c-kit kinase (Homo sapiens, UniProt P10721).
T1 construct: The c-kit (or kinase domain thereof) is an active kinase in AlphaScreen; poly-Histidine tag (in-house protein only) (cleaved yes); host or cells: E. coli BL21(DE3)RIL, co-expressed with PTP1B
The experiment is described as follows: c-Kit biochemical assay, AlphaScreen, 10 μM ATP. Particulars: c-kit biochemical inhibitory activity; read-out: Biochemical activity (IC50 μM) Kit. Here is the method:
IC50 values are determined with respect to inhibition of c-Kit kinase activity, where inhibition of phosphorylation of a peptide substrate is measured as a function of compound concentration. Compounds to be tested were dissolved in DMSO to a concentration of 20 mM. These were diluted 30 μl into 120 μl of DMSO (4 mM) and 1 μl was added to an assay plate. These were then serially diluted 1:3 (50 μl to 100 μl DMSO) for a total of 8 points. Plates were prepared such that each kinase reaction is 20 μl in 1× kinase buffer (50 mM HEPES, pH 7.2, 5 mM MgCl2, 5 mM MnCl2, 0.01% NP-40, 0.2% BSA), 5% DMSO and 10 μM ATP. […] C-kit kinase was at 0.1 ng per sample. After incubation of the kinase reaction for 1 hour at room temperature, 5 μl of donor beads (Streptavidin coated beads (Perkin Elmer Life Science) final concentration 1 μg/ml) in stop buffer (50 mM EDTA in 1× kinase buffer) was added, the sample was mixed and incubated for 20 minutes at room temperature before adding 5 μl of acceptor beads (PY20 coated beads (Perkin Elmer Life Science) final concentration 1 μg/ml) in stop buffer. The samples were incubated for 60 minutes at room temperature and the signal per well was read on AlphaQuest reader. […] The signal vs. compound concentration was used to determine the IC50.
Complementary DNA cloned from various human tissues were purchased from Invitrogen, and these were used as substrates in the PCR reactions. Specific custom synthetic oligonucleotide primers were designed to initiate the PCR product, and also to provide the appropriate restriction enzyme cleavage sites for ligation with the plasmids. The entire sequence encoding the enzyme was made through a gene synthesis procedure, using custom synthetic oligonucleotides covering the entire coding sequence (Invitrogen, see below).
The plasmid used for ligation with the kinase-encoding inserts was derivative of pET (Novagen) for expression using E. coli. The Kit kinase was engineered to include a Histidine tag for purification using metal affinity chromatography. The kinase-encoding plasmid was engineered as bicistronic mRNA to co-express a second protein that modifies the kinase protein during its expression in the host cell. Protein tyrosine phosphatase 1B (PTP), was co-expressed for dephosphorylation of the phospho-Tyrosines.
For protein expression, the plasmid containing the Kit gene was transformed into E. coli strains BL21(DE3)RIL and transformants selected for growth on LB agar plates containing appropriate antibiotics. Single colonies were grown overnight at 37° C. in 200 ml TB (Terrific broth) media. 16×1 L of fresh TB media in 2.8 L flasks were inoculated with 10 ml of overnight culture and grown with constant shaking at 37° C. Once cultures reached an absorbance of 1.0 at 600 nm, IPTG was added and cultures were allowed to grow for a further 12 to 18 hrs at temperatures ranging from 12-30° C. Cells were harvested by centrifugation and pellets frozen at […] until ready for lysis.
For protein Purification; frozen E. coli cell pellets were resuspended in lysis buffer and lysed using standard mechanical methods. Protein was purified via poly-Histidine tags using immobilized metal affinity purification IMAC. The Kit kinase was purified using a 3 step purification process utilizing; IMAC, size exclusion chromatography and ion exchange chromatography. The poly-Histidine tag was removed using Thrombin (Calbiochem).

Structures are written as SMILES.

T1 sequence (P10721 26-976): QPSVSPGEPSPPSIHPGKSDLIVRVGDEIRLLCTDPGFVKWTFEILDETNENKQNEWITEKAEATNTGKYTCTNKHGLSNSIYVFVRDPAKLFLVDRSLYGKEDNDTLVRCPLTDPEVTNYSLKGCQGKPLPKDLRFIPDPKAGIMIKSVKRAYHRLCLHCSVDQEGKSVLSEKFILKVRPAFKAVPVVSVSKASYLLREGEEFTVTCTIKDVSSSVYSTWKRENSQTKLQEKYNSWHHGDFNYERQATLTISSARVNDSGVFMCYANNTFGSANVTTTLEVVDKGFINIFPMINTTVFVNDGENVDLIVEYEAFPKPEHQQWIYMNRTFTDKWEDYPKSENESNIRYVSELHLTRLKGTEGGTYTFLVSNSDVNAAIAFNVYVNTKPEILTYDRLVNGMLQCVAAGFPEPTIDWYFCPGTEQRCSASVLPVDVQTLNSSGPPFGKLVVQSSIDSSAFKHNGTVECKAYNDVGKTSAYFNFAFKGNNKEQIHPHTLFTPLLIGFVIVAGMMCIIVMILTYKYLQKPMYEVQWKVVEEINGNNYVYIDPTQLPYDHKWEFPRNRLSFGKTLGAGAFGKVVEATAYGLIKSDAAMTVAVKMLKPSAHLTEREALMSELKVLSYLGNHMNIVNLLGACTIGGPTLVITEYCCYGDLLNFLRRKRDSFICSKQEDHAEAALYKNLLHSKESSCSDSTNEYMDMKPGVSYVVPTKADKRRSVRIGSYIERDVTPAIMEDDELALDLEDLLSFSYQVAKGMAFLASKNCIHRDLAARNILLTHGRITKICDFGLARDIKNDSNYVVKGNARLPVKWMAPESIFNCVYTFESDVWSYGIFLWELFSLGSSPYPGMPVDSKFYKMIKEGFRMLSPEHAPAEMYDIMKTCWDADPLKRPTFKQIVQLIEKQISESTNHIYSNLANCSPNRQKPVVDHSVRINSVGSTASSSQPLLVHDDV

For the molecule `C[C@H]1CN(c2ncnc3[nH]c(-c4ccncc4)cc23)CCN1C(=O)Nc1ccc(OC(F)(F)F)cc1` [P-0043, (2S)-2-methyl-4-[6-(4-pyridyl)-7H-pyrrolo[2,3-d]pyrimidin-4-yl]-N-[4-(trifluoromethoxy)phenyl]piperazine-1-carboxamide], the IC50 lay within 0.0001 to 1 µM.
In the case of `C[C@H]1CN(c2ncnc3[nH]c(-c4ccncc4)cc23)CCN1C(=O)Nc1ccc(N(C)C)cc1` [P-0046, (2S)-N-(4-dimethylaminophenyl)-2-methyl-4-[6-(4-pyridyl)-7H-pyrrolo[2,3-d]pyrimidin-4-yl]piperazine-1-carboxamide], the IC50 fell in the range of 1 to 10 µM.
As for `CN(C)c1ccc(NC(=O)N2CCN(c3ncnc4[nH]ccc34)CC2)cc1` [P-0132, N-(4-dimethylaminophenyl)-4-(7H-pyrrolo[2,3-d]pyrimidin-4-yl)piperazine-1-carboxamide], the IC50 fell in the range of 1 to 10 µM.
In the case of `N#Cc1c[nH]c2ncnc(N3CCN(C(=O)NCc4ccc(F)cc4)CC3)c12` [P-0158, 4-(5-cyano-7H-pyrrolo[2,3-d]pyrimidin-4-yl)-N-[(4-fluorophenyl)methyl]piperazine-1-carboxamide], the IC50 was 10 to 200 µM.
Turning to `COc1ccc(NC(=O)N2CCN(c3ncnc4[nH]ccc34)CC2)cc1OC` [P-0173, N-(3,4-dimethoxyphenyl)-4-(7H-pyrrolo[2,3-d]pyrimidin-4-yl)piperazine-1-carboxamide], the 50% inhibitory concentration (IC50) lay in the range of 10 to 200 µM.
With `O=C(Nc1ccc(F)c(F)c1)N1CCN(c2ncnc3[nH]ccc23)CC1` [P-0175, N-(3,4-difluorophenyl)-4-(7H-pyrrolo[2,3-d]pyrimidin-4-yl)piperazine-1-carboxamide] the figure was 10 to 200 µM; with `C[C@H](NC(=O)N1CCN(c2ncnc3[nH]c(-c4ccc(F)cc4)cc23)CC1)c1ccc(Cl)cc1` [P-0178, N-[(1S)-1-(4-chlorophenyl)ethyl]-4-[6-(4-fluorophenyl)-7H-pyrrolo[2,3-d]pyrimidin-4-yl]piperazine-1-carboxamide], 10 to 200 µM; with `O=C(NCc1ccc(C(F)(F)F)nc1)N1CCN(c2ncnc3[nH]c(-c4ccc(Cl)cc4)cc23)CC1` [P-0180, 4-[6-(4-chlorophenyl)-7H-pyrrolo[2,3-d]pyrimidin-4-yl]-N-[[6-(trifluoromethyl)-3-pyridyl]methyl]piperazine-1-carboxamide], 10 to 200 µM.
With `COc1ccc(S(=O)(=O)N2CCN(c3ncnc4[nH]ccc34)CC2)c(N)c1` [P-0190, 5-methoxy-2-[4-(7H-pyrrolo[2,3-d]pyrimidin-4-yl)piperazin-1-yl]sulfonyl-aniline] the figure was 10 to 200 µM.
With `O=C(Nc1ccccc1)c1cc2c(N3CCN(C(=O)NCc4ccc(F)cc4)CC3)ncnc2[nH]1` [P-0193, 4-[4-[(4-fluorophenyl)methylcarbamoyl]piperazin-1-yl]-N-phenyl-7H-pyrrolo[2,3-d]pyrimidine-6-carboxamide] the figure was 10 to 200 µM; with `CCCC(=O)N1CCN(c2ncnc3[nH]ccc23)CC1` [P-0194, 1-[4-(7H-pyrrolo[2,3-d]pyrimidin-4-yl)piperazin-1-yl]butan-1-one], 10 to 200 µM.
Consider `O=C(C1CCCCC1)N1CCN(c2ncnc3[nH]ccc23)CC1` [P-0195, cyclohexyl-[4-(7H-pyrrolo[2,3-d]pyrimidin-4-yl)piperazin-1-yl]methanone], for which the concentration for half-maximal inhibition (IC50) was 10 to 200 µM.
Turning to `O=C(C1CCCC1)N1CCN(c2ncnc3[nH]ccc23)CC1` [P-0196, cyclopentyl-[4-(7H-pyrrolo[2,3-d]pyrimidin-4-yl)piperazin-1-yl]methanone], the IC50 was in the range of 10 to 200 µM.
As to `CCc1ccc(C(=O)N2CCN(c3ncnc4[nH]ccc34)CC2)cc1` [P-0197, (4-ethylphenyl)-[4-(7H-pyrrolo[2,3-d]pyrimidin-4-yl)piperazin-1-yl]methanone], the IC50 was in the range of 1 to 10 µM.
In the case of `O=C(c1ccccc1)N1CCN(c2ncnc3[nH]ccc23)CC1` [P-0198, phenyl-[4-(7H-pyrrolo[2,3-d]pyrimidin-4-yl)piperazin-1-yl]methanone], the IC50 is 10 to 200 µM.
With `CCCS(=O)(=O)N1CCN(c2ncnc3[nH]ccc23)CC1` [P-0199, 4-(4-propylsulfonylpiperazin-1-yl)-7H-pyrrolo[2,3-d]pyrimidine] the figure was 10 to 200 µM; with `O=S(=O)(c1ccccc1)N1CCN(c2ncnc3[nH]ccc23)CC1` [P-0200, 4-[4-(benzenesulfonyl)piperazin-1-yl]-7H-pyrrolo[2,3-d]pyrimidine], 10 to 200 µM; with `CCOc1ccc(NC(=O)N2CCN(c3ncnc4[nH]ccc34)CC2)cc1` [P-0201, N-(4-ethoxyphenyl)-4-(7H-pyrrolo[2,3-d]pyrimidin-4-yl)piperazine-1-carboxamide], 1 to 10 µM.
`CCc1ccc(NC(=O)N2CCN(c3ncnc4[nH]ccc34)CC2)cc1` [P-0202, N-(4-ethylphenyl)-4-(7H-pyrrolo[2,3-d]pyrimidin-4-yl)piperazine-1-carboxamide]: the half-inhibitory concentration (IC50) fell in the range of 10 to 200 µM.
Turning to `CCCNC(=O)N1CCN(c2ncnc3[nH]ccc23)CC1` [P-0203, N-propyl-4-(7H-pyrrolo[2,3-d]pyrimidin-4-yl)piperazine-1-carboxamide], the IC50 fell in the range of 10 to 200 µM.
Under `O=C(NC1CCCCC1)N1CCN(c2ncnc3[nH]ccc23)CC1` [P-0204, N-cyclohexyl-4-(7H-pyrrolo[2,3-d]pyrimidin-4-yl)piperazine-1-carboxamide] stands 10 to 200 µM; under `O=C(Nc1ccccc1)N1CCN(c2ncnc3[nH]ccc23)CC1` [P-0205, N-phenyl-4-(7H-pyrrolo[2,3-d]pyrimidin-4-yl)piperazine-1-carboxamide], 10 to 200 µM; under `Cc1ccccc1C(=O)c1c[nH]c2ncnc(N3CCN(c4cc(NC5CC5)ncn4)CC3)c12` [P-0206, [4-[4-[6-(cyclopropylamino)pyrimidin-4-yl]piperazin-1-yl]-7H-pyrrolo[2,3-d]pyrimidin-5-yl]-(o-tolyl)methanone], 10 to 200 µM.
Under `O=C(c1ccc(Cl)cc1)c1cc2c(N3CCN(C(=O)NCc4ccc(F)cc4)CC3)ncnc2[nH]1` [P-0207, 4-[6-(4-chlorobenzoyl)-7H-pyrrolo[2,3-d]pyrimidin-4-yl]-N-[(4-fluorophenyl)methyl]piperazine-1-carboxamide] stands 10 to 200 µM; under `O=C(c1cc2c(N3CCN(C(=O)NCc4ccc(F)cc4)CC3)ncnc2[nH]1)C1CC1` [P-0209, 4-[6-(cyclopropanecarbonyl)-7H-pyrrolo[2,3-d]pyrimidin-4-yl]-N-[(4-fluorophenyl)methyl]piperazine-1-carboxamide], 1 to 10 µM; under `O=C(NCc1ccc(F)cc1)N1CCN(c2ncnc3[nH]c(CC4CC4)cc23)CC1` [P-0210, 4-[6-(cyclopropylmethyl)-7H-pyrrolo[2,3-d]pyrimidin-4-yl]-N-[(4-fluorophenyl)methyl]piperazine-1-carboxamide], 10 to 200 µM.
With `COc1cc(NC(=O)N2CCN(c3ncnc4[nH]cc(-c5ccccc5)c34)CC2)cc(OC)c1` [P-0216, N-(3,5-dimethoxyphenyl)-4-(5-phenyl-7H-pyrrolo[2,3-d]pyrimidin-4-yl)piperazine-1-carboxamide], the IC50 lay in the range of 10 to 200 µM.
In the case of `COc1ccc(NC(=O)N2CCN(c3ncnc4[nH]c(-c5ccccc5)cc34)CC2)cc1` [P-0240, N-(4-methoxyphenyl)-4-(6-phenyl-7H-pyrrolo[2,3-d]pyrimidin-4-yl)piperazine-1-carboxamide], the half-maximal inhibitory concentration (IC50) was 10 to 200 µM.
Under `COc1ccc(NC(=O)N2CCN(c3ncnc4[nH]c(I)cc34)CC2)cc1` [P-0244, 4-(6-iodo-7H-pyrrolo[2,3-d]pyrimidin-4-yl)-N-(4-methoxyphenyl)piperazine-1-carboxamide] stands 1 to 10 µM.
Under `COc1cc2ncnc(-c3ccc(N)c(F)c3)c2cc1OC` [P-0276, 4-(6,7-dimethoxyquinazolin-4-yl)-2-fluoro-aniline] stands 1 to 10 µM.
In the case of `COc1cc2ncnc(-c3ccc(S(=O)(=O)NC4CC4)cc3)c2cc1OC` [P-0277, N-cyclopropyl-4-(6,7-dimethoxyquinazolin-4-yl)benzenesulfonamide], the IC50 lay within 10 to 200 µM.

Values taken from patent publication US10227357B2, “Compounds and methods for kinase modulation, and indications therefor” (Plexxikon Inc., priority 2012, dated 2019).
